Experimental data reported in the NIST ThermoML archive (doi:10.1021/je060271a).
Several values for one entry are separate records, joined by “and”; a condition that tells them apart may be missing. Equal entries are not always repeated. ± gives the expanded uncertainty stated by the source.

Settings: 303.15 K, Liquid, Vibrating tube method

CCCCCC(=O)OCC(COC(=O)CCCCC)(COC(=O)CCCCC)COC(=O)CCCCC [pentaerythritol tetrahexanoate]
Settings | mass density
195.8 kPa | 988.6 ± 1.2 kg/m3 and 988.4 ± 1.2 kg/m3
196 kPa | 988.5 ± 1.2 kg/m3
196.2 kPa | 988.3 ± 1.2 kg/m3
196.3 kPa | 988.5 ± 1.2 kg/m3
196.5 kPa | 988.5 ± 1.2 kg/m3 and 988.6 ± 1.2 kg/m3
198.2 kPa | 988.4 ± 1.2 kg/m3 and 988.5 ± 1.2 kg/m3
198.4 kPa | 988.4 ± 1.2 kg/m3
198.8 kPa | 988.4 ± 1.2 kg/m3 and 988.5 ± 1.2 kg/m3
198.9 kPa | 988.5 ± 1.2 kg/m3
199.1 kPa | 988.5 ± 1.2 kg/m3
199.3 kPa | 988.4 ± 1.2 kg/m3
199.6 kPa | 988.5 ± 1.2 kg/m3 and 988.6 ± 1.2 kg/m3
200.9 kPa | 988.4 ± 1.2 kg/m3
202.8 kPa | 988.4 ± 1.2 kg/m3
203.1 kPa | 988.5 ± 1.2 kg/m3
203.3 kPa | 988.5 ± 1.2 kg/m3
203.5 kPa | 988.4 ± 1.2 kg/m3
203.8 kPa | 988.4 ± 1.2 kg/m3
204 kPa | 988.5 ± 1.2 kg/m3
204.5 kPa | 988.4 ± 1.2 kg/m3
204.7 kPa | 988.4 ± 1.2 kg/m3
204.9 kPa | 988.5 ± 1.2 kg/m3 and 988.6 ± 1.2 kg/m3
205 kPa | 988.5 ± 1.2 kg/m3
205.4 kPa | 988.5 ± 1.2 kg/m3 and 988.4 ± 1.2 kg/m3
205.7 kPa | 988.5 ± 1.2 kg/m3 and 988.6 ± 1.2 kg/m3
206.1 kPa | 988.5 ± 1.2 kg/m3
206.2 kPa | 988.5 ± 1.2 kg/m3 and 988.4 ± 1.2 kg/m3
206.4 kPa | 988.5 ± 1.2 kg/m3
206.8 kPa | 988.4 ± 1.2 kg/m3
206.9 kPa | 988.3 ± 1.2 kg/m3
208.3 kPa | 988.4 ± 1.2 kg/m3
208.7 kPa | 988.4 ± 1.2 kg/m3
210.1 kPa | 988.5 ± 1.2 kg/m3 and 988.4 ± 1.2 kg/m3
210.6 kPa | 988.5 ± 1.2 kg/m3
210.9 kPa | 988.3 ± 1.2 kg/m3 and 988.4 ± 1.2 kg/m3
211.1 kPa | 988.4 ± 1.2 kg/m3 and 988.5 ± 1.2 kg/m3 and 988.3 ± 1.2 kg/m3
211.8 kPa | 988.5 ± 1.2 kg/m3 and 988.6 ± 1.2 kg/m3
212 kPa | 988.5 ± 1.2 kg/m3
212.3 kPa | 988.4 ± 1.2 kg/m3
213.2 kPa | 988.4 ± 1.2 kg/m3
213.6 kPa | 988.5 ± 1.2 kg/m3
213.7 kPa | 988.6 ± 1.2 kg/m3
214.1 kPa | 988.5 ± 1.2 kg/m3
214.2 kPa | 988.5 ± 1.2 kg/m3
214.4 kPa | 988.5 ± 1.2 kg/m3
214.6 kPa | 988.6 ± 1.2 kg/m3
214.8 kPa | 988.5 ± 1.2 kg/m3
215.1 kPa | 988.4 ± 1.2 kg/m3
215.5 kPa | 988.5 ± 1.2 kg/m3
215.6 kPa | 988.4 ± 1.2 kg/m3 and 988.5 ± 1.2 kg/m3
216 kPa | 988.5 ± 1.2 kg/m3
216.2 kPa | 988.5 ± 1.2 kg/m3
216.5 kPa | 988.5 ± 1.2 kg/m3
216.7 kPa | 988.6 ± 1.2 kg/m3
216.9 kPa | 988.5 ± 1.2 kg/m3
217 kPa | 988.5 ± 1.2 kg/m3
217.2 kPa | 988.4 ± 1.2 kg/m3
217.7 kPa | 988.4 ± 1.2 kg/m3
218.1 kPa | 988.5 ± 1.2 kg/m3
218.2 kPa | 988.5 ± 1.2 kg/m3
218.6 kPa | 988.5 ± 1.2 kg/m3
219.1 kPa | 988.5 ± 1.2 kg/m3
219.4 kPa | 988.6 ± 1.2 kg/m3
219.6 kPa | 988.5 ± 1.2 kg/m3
219.8 kPa | 988.4 ± 1.2 kg/m3
220 kPa | 988.4 ± 1.2 kg/m3
220.2 kPa | 988.4 ± 1.2 kg/m3
220.3 kPa | 988.4 ± 1.2 kg/m3
224.1 kPa | 988.4 ± 1.2 kg/m3
224.8 kPa | 988.5 ± 1.2 kg/m3
225.2 kPa | 988.4 ± 1.2 kg/m3
225.4 kPa | 988.5 ± 1.2 kg/m3
228.3 kPa | 988.6 ± 1.2 kg/m3
